This passage reports IC50 results from patent US11084800B2 (Achillion Pharmaceuticals, Inc., priority 2017, dated 2021).

Human Factor D, sequence (P00746 26-253): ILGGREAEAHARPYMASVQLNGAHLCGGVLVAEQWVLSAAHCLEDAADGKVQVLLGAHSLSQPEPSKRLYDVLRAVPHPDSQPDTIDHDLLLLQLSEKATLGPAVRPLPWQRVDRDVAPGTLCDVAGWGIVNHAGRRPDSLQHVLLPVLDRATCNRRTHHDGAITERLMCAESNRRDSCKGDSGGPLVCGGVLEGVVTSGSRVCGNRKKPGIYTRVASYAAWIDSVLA

One test concerns the target Human Factor D (Homo sapiens (Human), UniProt P00746). Description: Human Factor D Assay. Conditions: Factor D inhibition, assay of Example 10; read-out: IC5 (Stars). Type of test: biochemical. Put shortly:
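Thioester substrate Z-L-Lys-SBz (100 μM) with Ellman's reagent DTNB (100 μM) reports activity of 80 nM human serum-derived enzyme, kinetically at 405 nm over 30 min. Compound preincubated 5 min, room temperature, pH 7.5 Tris/1 M NaCl; IC50 by nonlinear fit of rates.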
As to `CC(=O)c1nn(CC(=O)N2[C@H](C(=O)Nc3nc(Br)ccc3C)C[C@@]3(Cc4nnco4)C[C@@H]23)c2c(C)cc(-c3cnc(C)nc3)cc12` [Compound 359, (1R,3S,5R)-5-((1,3,4-Oxadiazol-2-yl)methyl)-2-(2-(3-acetyl-7-methyl-5-(2-methylpyrimidin-5-yl)-1H-indazol-1-yl)acetyl)-N-(6-bromo-3-methylpyridin-2-yl)-2-azabicyclo[3.1.0]hexane-3-carboxamide], the IC50 is below 1000 nM.

With `CC(=O)c1nn(CC(=O)N2[C@H](C(=O)Nc3nc(Br)ccc3C)C[C@@]3(Cc4nnc(C)o4)C[C@@H]23)c2c(C)cc(-c3cnc(C)nc3)cc12` [Compound 360, (1R,3S,5R)-2-(2-(3-acetyl-7-methyl-5-(2-methylpyrimidin-5-yl)-1H-indazol-1-yl)acetyl)-N-(6-bromo-3-methylpyridin-2-yl)-5-((5-methyl-1,3,4-oxadiazol-2-yl)methyl)-2-azabicyclo[3.1.0]hexane-3-carboxamide], the IC50 is below 1000 nM. Same read-out and setting: under `Cc1ncc(-c2cc3c(C(N)=O)nn(CC(=O)N4[C@H](C(=O)Nc5nc(Br)ccc5C)C[C@@]5(C)C[C@@H]45)c3cn2)cn1` [Compound 361, 1-(2-((1R,3S,5R)-3-((6-bromo-3-methylpyridin-2-yl)carbamoyl)-5-methyl-2-azabicyclo[3.1.0]hexan-2-yl)-2-oxoethyl)-5-(2-methylpyrimidin-5-yl)-1H-pyrazolo[3,4-c]pyridine-3-carboxamide] stands below 1000 nM. As to `CC(=O)c1nn(CC(=O)N2[C@H](C(=O)Nc3nc(Br)ccc3-c3nnc(C(C)C)o3)C[C@@]3(C)C[C@@H]23)c2ccc(-c3cnc(C)nc3)cc12` [Compound 362, (1R,3S,5R)-2-(2-(3-acetyl-5-(2-methylpyrimidin-5-yl)-1H-indazol-1-yl)acetyl)-N-(6-bromo-3-(5-isopropyl-1,3,4-oxadiazol-2-yl)pyridin-2-yl)-5-methyl-2-azabicyclo[3.1.0]hexane-3-carboxamide], the IC50 lay within 1000 to 10000 nM. Consider `COc1ccc(Br)nc1NC(=O)[C@@H]1C[C@@]2(C)C[C@H]2N1C(=O)Cn1nc(C(C)=O)c2cc(-c3cnc(C)nc3)ccc21` [Compound 363, (1R,3S,5R)-2-(2-(3-acetyl-5-(2-methylpyrimidin-5-yl)-1H-indazol-1-yl)acetyl)-N-(6-bromo-3-methoxypyridin-2-yl)-5-methyl-2-azabicyclo[3.1.0]hexane-3-carboxamide], for which the IC50 was below 1000 nM. As for `CC(=O)c1nn(CC(=O)N2[C@H](C(=O)Nc3nc(Br)ccc3CN3CC(F)C3)C[C@@]3(C)C[C@@H]23)c2ccc(-c3cnc(C)nc3)cc12` [Compound 364, (1R,3S,5R)-2-(2-(3-acetyl-5-(2-methylpyrimidin-5-yl)-1H-indazol-1-yl)acetyl)-N-(6-bromo-3-((3-fluoroazetidin-1-yl)methyl)pyridin-2-yl)-5-methyl-2-azabicyclo[3.1.0]hexane-3-carboxamide], the IC50 was below 1000 nM. As for `CC(=O)c1nn(CC(=O)N2[C@H](C(=O)Nc3nc(Br)ccc3CC#N)C[C@@]3(C)C[C@@H]23)c2c(C)cc(-c3cnc(C)nc3)cc12` [Compound 365, (1R,3S,5R)-2-(2-(3-acetyl-7-methyl-5-(2-methylpyrimidin-5-yl)-1H-indazol-1-yl)acetyl)-N-(6-bromo-3-(cyanomethyl)pyridin-2-yl)-5-methyl-2-azabicyclo[3.1.0]hexane-3-carboxamide], the IC50 is below 1000 nM. Same read-out and setting: under `CC(=O)c1nn(CC(=O)N2[C@H](C(=O)Nc3nc(Br)ccc3C)C[C@@]3(CN4CC5(CC5)C4)C[C@@H]23)c2c(C)cc(-c3cnc(C)nc3)cc12` [Compound 366, (1R,3S,5R)-5-(5-azaspiro[2.3]hexan-5-ylmethyl)-2-(2-(3-acetyl-7-methyl-5-(2-methylpyrimidin-5-yl)-1H-indazol-1-yl)acetyl)-N-(6-bromo-3-methylpyridin-2-yl)-2-azabicyclo[3.1.0]hexane-3-carboxamide] stands below 1000 nM; under `Cc1ncc(-c2ccc3c(c2)c(CC#N)nn3CC(=O)N2[C@H](C(=O)Nc3nc(Br)ccc3C)C[C@@]3(C)C[C@@H]23)cn1` [Compound 367, (1R,3S,5R)-N-(6-bromo-3-methylpyridin-2-yl)-2-(2-(3-(cyanomethyl)-5-(2-methylpyrimidin-5-yl)-1H-indazol-1-yl)acetyl)-5-methyl-2-azabicyclo[3.1.0]hexane-3-carboxamide], above 10000 nM. Same read-out and setting: under `Cc1ncc(-c2ccc3c(c2)c(C(C)(C)C#N)nn3CC(=O)N2[C@H](C(=O)Nc3nc(Br)ccc3C)C[C@@]3(C)C[C@@H]23)cn1` [Compound 368, (1R,3S,5R)-N-(6-bromo-3-methylpyridin-2-yl)-2-(2-(3-(2-cyanopropan-2-yl)-5-(2-methylpyrimidin-5-yl)-1H-indazol-1-yl)acetyl)-5-methyl-2-azabicyclo[3.1.0]hexane-3-carboxamide] stands above 10000 nM; under `CC(=O)c1nn(CC(=O)N2[C@H](C(=O)Nc3nc(Br)ccc3C)C[C@@]3(CN4CC5(CC5)C4)C[C@@H]23)c2c(CF)cc(-c3cnc(C)nc3)cc12` [Compound 369, (1R,3S,5R)-5-(5-azaspiro[2.3]hexan-5-ylmethyl)-2-(2-(3-acetyl-7-(fluoromethyl)-5-(2-methylpyrimidin-5-yl)-1H-indazol-1-yl)acetyl)-N-(6-bromo-3-methylpyridin-2-yl)-2-azabicyclo[3.1.0]hexane-3-carboxamide], below 1000 nM.

Consider `CC(=O)c1nn(CC(=O)N2[C@H](C(=O)Nc3nc(Br)ccc3C)C[C@@]3(CN4CC5(CC5)C4)C[C@@H]23)c2c(C)nc(-c3cnc(C)nc3)cc12` [Compound 370, (1R,3S,5R)-5-(5-azaspiro[2.3]hexan-5-ylmethyl)-2-(2-(3-acetyl-7-methyl-5-(2-methylpyrimidin-5-yl)-1H-pyrazolo[3,4-c]pyridin-1-yl)acetyl)-N-(6-bromo-3-methylpyridin-2-yl)-2-azabicyclo[3.1.0]hexane-3-carboxamide], for which the IC50 is below 1000 nM.

On to `CC(=O)c1nn(CC(=O)N2[C@H](C(=O)Nc3nc(Br)ccc3C)C[C@@]3(Cc4nc(C)no4)C[C@@H]23)c2c(C)cc(-c3cnc(C)nc3)cc12` [Compound 372, (1R,3S,5R)-2-(2-(3-acetyl-7-methyl-5-(2-methylpyrimidin-5-yl)-1H-indazol-1-yl)acetyl)-N-(6-bromo-3-methylpyridin-2-yl)-5-((3-methyl-1,2,4-oxadiazol-5-yl)methyl)-2-azabicyclo[3.1.0]hexane-3-carboxamide], for which the IC50 is below 1000 nM. On the same count and under the same terms, under `CC(=O)c1nn(CC(=O)N2[C@H](C(=O)Nc3nc(Br)ccc3C)C[C@@]3(C)C[C@@H]23)c2cc(C)c(-c3cnc(C)nc3)cc12` [Compound 373, (1R,3S,5R)-2-(2-(3-acetyl-6-methyl-5-(2-methylpyrimidin-5-yl)-1H-indazol-1-yl)acetyl)-N-(6-bromo-3-methylpyridin-2-yl)-5-methyl-2-azabicyclo[3.1.0]hexane-3-carboxamide] stands below 1000 nM; under `CC(=O)c1nn(CC(=O)N2[C@H](C(=O)Nc3nc(Br)ccc3C)C[C@@]3(CCN(C)C)C[C@@H]23)c2c(CF)cc(-c3cnc(C)nc3)cc12` [Compound 377, (1R,3S,5R)-2-(2-(3-acetyl-7-(fluoromethyl)-5-(2-methylpyrimidin-5-yl)-1H-indazol-1-yl)acetyl)-N-(6-bromo-3-methylpyridin-2-yl)-5-(2-(dimethylamino)ethyl)-2-azabicyclo[3.1.0]hexane-3-carboxamide], below 1000 nM. On the same count and under the same terms, the figure for `CC(=O)c1nn(CC(=O)N2[C@H](C(=O)Nc3nc(Br)ccc3C)C[C@@]3(CCCCN(C)C)C[C@@H]23)c2c(CF)cc(-c3cnc(C)nc3)cc12` [Compound 378, (1R,3S,5R)-2-(2-(3-acetyl-7-(fluoromethyl)-5-(2-methylpyrimidin-5-yl)-1H-indazol-1-yl)acetyl)-N-(6-bromo-3-methylpyridin-2-yl)-5-(4-(dimethylamino)butyl)-2-azabicyclo[3.1.0]hexane-3-carboxamide] is below 1000 nM.

For the compound `CC(=O)c1nn(CC(=O)N2[C@H](C(=O)Nc3nc(C(F)(F)F)ccc3C)C[C@@]3(CCCN(C)C)C[C@@H]23)c2c(CF)cc(-c3cnc(C)nc3)cc12` [Compound 380, (1R,3S,5R)-2-(2-(3-acetyl-7-(fluoromethyl)-5-(2-methylpyrimidin-5-yl)-1H-indazol-1-yl)acetyl)-5-(3-(dimethylamino)propyl)-N-(3-methyl-6-(trifluoromethyl)pyridin-2-yl)-2-azabicyclo[3.1.0]hexane-3-carboxamide], the IC50 is below 1000 nM. For the compound `CC(=O)c1nn(CC(=O)N2[C@H](C(=O)Nc3nc(Br)ccc3C)C[C@@]3(COC(F)F)C[C@@H]23)c2cnc(-c3cnc(C)nc3)cc12` [Compound 384, (1R,3S,5S)-2-(2-(3-Acetyl-5-(2-methylpyrimidin-5-yl)-1H-pyrazolo[3,4-c]pyridin-1-yl)acetyl)-N-(6-bromo-3-methylpyridin-2-yl)-5-((difluoromethoxy)methyl)-2-azabicyclo[3.1.0]hexane-3-carboxamide], the IC50 was below 1000 nM. Same read-out and setting: the figure for `CC(=O)c1nn(CC(=O)N2[C@H](C(=O)Nc3nc(Br)ccc3Cl)C[C@@]3(C)C[C@@H]23)c2ccc(-c3cnc(C)nc3)cc12` [Compound 386, (1R,3S,5R)-2-(2-(3-acetyl-5-(2-methylpyrimidin-5-yl)-1H-indazol-1-yl)acetyl)-N-(6-bromo-3-chloropyridin-2-yl)-5-methyl-2-azabicyclo[3.1.0]hexane-3-carboxamide] is below 1000 nM.

The test is the same for the next values; noted with them: Table 8; Factor D 80 nM, substrate Z-L-Lys-SBz; read-out: IC50.
With `COC(=O)CCCCCCCCCCCCCCCCC(=O)N[C@@H](CCC(=O)NCCOCCOCC(=O)NCCOCCOCC(=O)NC[C@@]12C[C@@H](C(=O)Nc3nc(Br)ccc3C)N(C(=O)Cn3nc(C(C)=O)c4cc(-c5cnc(C)nc5)ccc43)[C@@H]1C2)C(=O)OC` [Compound 358, (S)-methyl 1-((1R,3S,5R)-2-(2-(3-acetyl-5-(2-methylpyrimidin-5-yl)-1H-indazol-1-yl)acetyl)-3-((6-bromo-3-methylpyridin-2-yl)carbamoyl)-2-azabicyclo[3.1.0]hexan-5-yl)-24-(methoxycarbonyl)-3,12,21,26-tetraoxo-5,8,14,17-tetraoxa-2,11,20,25-tetraazatritetracontan-43-oate], the IC50 was above 10000 nM.
